Values joined by “and” are separate entries in the source; they are usually repeats but may differ in a detail not shown here. Identical values can stand only once.
Each compound was assayed against T1, NS3 (West Nile virus, UniProt K4FQI5) (assay: Functional biochemical assay to identify treatments for viral infectious disease that targets West Nile NS2B-NS3 protease. Utilizing a direct enzyme activity measurement method, reading the fluorescence intensity is used to characterize the relative potency of inhibitors as IC50.).
T1 sequence (K4FQI5 whole entry): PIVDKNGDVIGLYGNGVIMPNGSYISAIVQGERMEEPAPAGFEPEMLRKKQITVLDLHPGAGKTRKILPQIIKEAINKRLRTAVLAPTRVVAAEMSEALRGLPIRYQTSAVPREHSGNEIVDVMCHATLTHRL
Design: species or system NY-99

SMILES	IC50
O=C(Nc1ccc2c(c1)CNC2)c1cc(F)cc2c1CCC2	4.41 µM
O=C1c2c(O)ccc([N+](=O)[O-])c2C(=O)c2c([N+](=O)[O-])ccc(O)c21	> 100 µM
COc1cccc(-c2nc3c(C(=O)Nc4ccc5c(c4)CNC5)cc(F)cc3[nH]2)c1	6.6 µM
CNC(=O)c1cc(Cl)c(F)cc1NS(=O)(=O)c1ccc(Oc2ccccc2Cl)cc1	30.6 µM
O=C(Nc1cc2c(c(C3=CCS(=O)(=O)CC3)c1)CNC2)c1cc(F)cc2[nH]ncc12	0.892 µM
O=C(Nc1ccc2c(c1)CNC2)c1ccc2c(C3=CCNCC3)csc2c1	7.5 µM
CCCCCC(=O)N[C@H](C(=O)Nc1ccc2[nH]ncc2c1)c1ccc(OCc2ccccc2)cc1	> 99.5 µM
COC(=O)c1cc2c(cc1NC(=O)c1cc(F)cc3[nH]ncc13)CNC2	1 µM
Cc1c(C(=O)Nc2cc([C@H]3CCOC3)ccn2)cc(C2CC2)n1C	2.68 µM
O=C(NCC1CCOCC1)[C@H](Nc1ccc2c(c1)CNC2)c1cc(Cl)cc2[nH]ncc12	2.28 µM
O=C(NCC(F)F)[C@H](Nc1ccc2c(c1)CNC2)c1cc(Cl)cc2[nH]ncc12	2.64 µM
CS(=O)(=O)NC(=O)c1cc(Cl)ccc1NS(=O)(=O)c1ccc(Oc2ccccc2Cl)cc1	74.5 µM
CS(=O)(=O)c1cc2c(cc1NC(=O)c1cc(F)cc3[nH]ncc13)CNC2	2.51 µM
N#Cc1cccc(-c2nc3c(C(=O)Nc4ccc5c(c4)CNC5)cc(F)cc3[nH]2)c1	3.76 µM
O=C(Nc1ccc2c(c1)CNC2)c1cc(Cl)cc2[nH]c(-c3ccnn3C3CC3)nc12	18.6 µM
O=C(Nc1ccc2c(c1)CNCCO2)c1cc(Cl)cc2[nH]ncc12	19.6 µM
CS(=O)(=O)N1CC[C@]2(C1)C(=O)Nc1cccc(C(=O)Nc3ccc4c(c3)CNC4)c12	6.28 µM
O=C(Nc1ccc2c(c1)CNC2)c1cc(F)cc(-c2cn[nH]c2)c1	0.691 µM
CC(C)CNC(=O)c1cc(Cl)c(F)cc1NS(=O)(=O)c1ccc(Oc2ccccc2Cl)cc1	24.9 µM
CN(C)C(=O)CCCc1nc2c(C(=O)Nc3ccc4c(c3)CNC4)cc(Cl)cc2[nH]1	> 99.5 µM
COC(=O)[C@H](C)n1cc2c(C(=O)Nc3ccc4c(c3)CNC4)cc(Cl)cc2n1	9.12 µM
CCc1cccc(-c2nc3c(C(=O)Nc4ccc5c(c4)CNC5)cc(F)cc3[nH]2)c1	18.9 µM
CNC(=O)[C@H](Nc1cc(Cl)cc(NC(=O)OCc2ccccc2)c1)c1cccc(-c2nn[nH]n2)c1	> 99.5 µM
C=CC[C@H]1NCc2cc(N[C@H](C(=O)NC(C)C)c3cc(Cl)cc4[nH]ncc34)ccc21	0.886 µM
CNC(=O)[C@H](Nc1ccc2c(c1)CNC2)c1cc(Cl)cc(C2CC2)c1	0.447 µM
CCc1cnccc1-c1nc2c(C(=O)Nc3ccc4c(c3)CNC4)cc(Cl)cc2[nH]1	> 99.5 µM

SMILES	IC50
N#Cc1cccc(-c2nc3c(C(=O)Nc4ccc5c(c4)CNC5)cc(Cl)cc3[nH]2)c1	7.57 µM
CCOC(=O)[C@H](Nc1ccc2c(c1)CNC2)c1cc(Cl)cc(C2CC2)c1	0.845 µM
NCc1cccc(NC(=O)c2cc(Cl)cc3c2cnn3CC2CC2)c1	68.2 µM
CCCCCC(=O)N[C@H](C(=O)NCc1cccc(CN)c1)c1ccc(OCc2ccccc2)cc1	72.3 µM
Cc1cccc(-c2nc3c(C(=O)Nc4ccc5c(c4)CNC5)cc(F)cc3[nH]2)c1	26 µM
CCc1cc(Cl)cc(C(=O)Nc2ccc3c(c2)CNC3)c1	> 99.5 µM
O=C(Nc1ccc2c(c1)CNC2)c1cccc2nc(O)ccc12	6.71 µM
Cc1cnccc1-c1cc(NC(=O)c2cc(F)cc3[nH]ncc23)cc2c1CNC2	2.77 µM
NCc1cccc(NC(=O)[C@H](NC(=O)OCc2ccccc2)C2CCC(c3ccccc3)CC2)c1 (some centres not stated)	8.31 µM
N=C(N)Nc1ccc(NC(=O)Oc2ccccc2)cc1	> 100 µM
O=C(Nc1ccc2c(c1)CNC2)c1cc(F)cc2[nH]nnc12	5.06 µM
O=C(Nc1cc(Cl)cc([C@H](C#CCO)Nc2cccc(-c3nn[nH]n3)c2)c1)OCc1ccccc1	34.2 µM
N#Cc1cc(Cl)cc(C(=O)Nc2ccc3c(c2)CNC3)c1	54.9 µM
O=C(Nc1ccc2c(c1)CNC2)c1cc(Cl)ccc1SC1CCCC1	> 99.5 µM
NS(=O)(=O)c1ccc(C2CCN(Cc3c[nH]c4ccccc34)CC2)cc1	> 99.5 µM
O=C(Nc1ccc2c(c1)CNC2)c1cc(Br)cc2[nH]ncc12	12.9 µM
CC(C)NC(=O)[C@H](Nc1ccc2c(c1)CNC2)c1cc(Cl)cc2[nH]ncc12	0.386 µM and 0.292 µM and 0.336 µM
O=C(Nc1ccc(F)nc1)Oc1ccccc1	> 100 µM
O=C1Cc2c(cc(Br)cc2C(=O)Nc2ccc3c(c2)CNC3)N1	3.18 µM
NCc1cccc(NC(=O)c2cc(Cl)cc(CN)c2)c1	9.79 µM
Cc1nc2c(C(=O)Nc3ccc4c(c3)CNC4)cc(Cl)cc2[nH]1	> 12.4 µM
N#C[C@H](Nc1ccc2c(c1)CNC2)c1cc(Cl)cc2[nH]ncc12	20 µM
COCc1cc(Cl)cc([C@H](Nc2ccc3c(c2)CNC3)C(=O)NCC(F)F)c1	0.154 µM
Cc1ccc2cc(Cl)cc(C(=O)Nc3ccc4c(c3)CNC4)c2n1	> 99.5 µM
CC(C)Cn1cc2c(C(=O)Nc3ccc4c(c3)CNC4)cc(Cl)cc2n1	14.7 µM
NCc1cccc(NC(=O)c2cc(Br)cc3[nH]ccc23)c1	> 99.5 µM

SMILES	IC50
O=C(Nc1ccc2c(c1)CNC2)c1cccc2ccncc12	11.4 µM
NCc1cccc(NC(=O)C[C@@H](NC(=O)OCc2ccccc2)c2ccc(OCc3ccccc3)cc2)c1	6.15 µM
O=C(Nc1cc(Cl)cc(C(=O)Nc2ccc3c(c2)CNC3)c1)OCc1ccccc1	17.7 µM and 48.4 µM and 25.2 µM
O=C(Nc1ccc2c(c1)CNC2)c1cc(Br)cc2c1OCO2	> 99.5 µM
Cn1cc(CCc2nc3c(C(=O)Nc4ccc5c(c4)CNC5)cc(Cl)cc3[nH]2)cn1	44.5 µM
O=C(Nc1ccc2c(c1)CNC2)c1cc(F)cc2[nH]c(-c3ccc(F)cc3O)nc12	24.1 µM
CC(C)n1cc2c(C(=O)Nc3ccc4c(c3)CNC4)cc(Cl)cc2n1	1.73 µM
O=C(Nc1ccc2c(c1)CNC2)c1cc(Br)cc2c1nc1n2CCCC1	31.4 µM
COc1ccc(S(=O)(=O)n2nc(OC(=O)c3cccc(-c4ccccc4Cl)c3)cc2N)cc1	1.09 µM
Cc1ccc(NC(=O)c2cc(Cl)cc(NC(=O)OCc3ccccc3)c2)cc1CN	60.7 µM
O=C(NCC(F)F)[C@H](Nc1ccc2c(c1)CNC2)c1cc(Cl)ccc1Cl	3.01 µM
O=C(Nc1cc2c(c(C3=CC[C@H](O)CC3)c1)CNC2)c1cc(Cl)cc2[nH]ncc12	3.82 µM
O=C(Nc1ccccc1)Oc1ccccc1 [PHENYL PHENYLCARBAMATE]	> 100 µM
CC(C)n1ncc2c(C(=O)Nc3ccc4c(c3)CNC4)cc(Cl)cc21	18.2 µM
COc1cc(-c2cc(NC(=O)c3cc(F)cc4[nH]ncc34)cc3c2CNC3)ccn1	0.801 µM
Cc1cc(C(=O)Nc2ccc3c(c2)CNC3)c2cn[nH]c2c1	9.64 µM
O=C(Nc1ccc2c(c1)CNCC2)c1cc(Cl)cc2[nH]ncc12	26.3 µM
NCCc1cccc(NC(=O)c2cc(Cl)cc(NC(=O)OCc3ccccc3)c2)c1	23.6 µM
O=C(Nc1cc2c(cc1Br)CNC2)c1cc(F)cc2[nH]ncc12	1.25 µM
O=C(Nc1ccc2c(c1)CNC2)c1cc(Cl)cc2[nH]c(-c3cc(C4CC4)[nH]n3)nc12	10.1 µM
O=C(Nc1ccc2c(c1)CN[C@H]2CO)c1cc(F)cc2[nH]ncc12	4.53 µM
O=C(O)c1cc(Cl)ccc1NS(=O)(=O)c1ccc(-c2ccc(F)cc2)cc1	29.5 µM
C=CC[C@H]1NCc2cc(NC(=O)c3cccc4c3CC(=O)N4)ccc21	8.03 µM
O=C(Nc1ccc2c(c1)CNC2)c1cc(Cl)cc2[nH]c(CCc3cccnc3)nc12	87.1 µM
O=C1CCc2c(cccc2C(=O)Nc2ccc3c(c2)CNC3)N1	10.8 µM
CC1=C(c2cc(NC(=O)c3cc(Cl)cc4[nH]ncc34)cc3c2CNC3)CCC1=O	12.9 µM

SMILES	IC50
O=C(NC1CCOCC1)[C@H](Nc1ccc2c(c1)CNC2)c1cc(Cl)cc(C2CC2)c1	0.186 µM
O=C(Nc1ccc2c(c1)CNC2)c1cc(F)cc(-c2ccncc2)c1	3.65 µM
COc1cc(Cc2c(-c3ccc(F)cc3)noc2C)nc(N2CCNCC2)n1	67.3 µM
O=C(Nc1cnc2c(c1)CNCC2)c1cc(Cl)cc2[nH]ncc12	26.5 µM
O=C(Nc1ccc2c(c1)CNC2)c1cccc2[nH]c(C(F)(F)F)cc12	2.51 µM
O=C(NCC(F)F)[C@H](Nc1ccc2c(c1)CNC2)c1cc(Cl)ccc1Sc1ccccc1	9.51 µM
Cn1cc2c(C(=O)Nc3ccc4c(c3)CNC4)cc(F)cc2n1	7.38 µM
NCc1cccc(NC(=O)c2cc(Cl)cc(NC(=O)OCc3ccccc3)c2)c1	22.9 µM
N=C(N)NCCc1cccc(B(O)O)c1	> 100 µM
O=C(Nc1cc2c(c(C3=CCOCC3)c1)CNC2)c1cc(F)cc2[nH]ncc12	0.627 µM
O=C(Nc1ccc2c(n1)CNC2)c1cc(Cl)cc2[nH]ncc12	35.2 µM
O=C(Nc1ccccc1)OCc1ccccc1 [BENZYL PHENYLCARBAMATE]	> 100 µM
O=C(NCC(F)F)[C@H](Nc1ccc2c(c1)CNC2)c1cc(Cl)cc(Cl)c1Cl	0.936 µM
c1ccc2c(CN3CCC(c4c[nH]c5cccnc45)CC3)c[nH]c2c1	> 99.5 µM
O=C1Cc2c(cccc2C(=O)Nc2ccc3c(c2)CNC3)N1	6.16 µM
CC(C)c1nc2c(C(=O)Nc3ccc4c(c3)CNC4)cc(Br)cc2[nH]1	> 99.5 µM
CCn1c(=O)c(N2CC[C@@H](CO)C2)nc2ccccc21	> 99.5 µM
N[C@H]1Cc2ccc(NC(=O)c3cc(Cl)cc4[nH]ncc34)cc2C1	51.6 µM
O=C(Nc1ccc2c(c1)CNC2)c1cc(Cl)cc2[nH]c(-c3cnccc3O)nc12	> 99.5 µM
NCc1cccc(NC(=O)c2cc(Cl)cc3[nH]ncc23)c1	35.8 µM
CN(C)c1nc(-c2cc(F)cc(C(=O)Nc3ccc4c(c3)CNC4)c2)cs1	12.6 µM
O=C(Nc1cc(Cl)cc(C(=O)Nc2ccc3c(c2)CCNC3)c1)OCc1ccccc1	49.5 µM
COc1cc(C(=O)Nc2ccc3c(c2)CNC3)cc2ccoc12	48.9 µM
O=C(NC[C@H]1CCCO1)[C@H](Nc1ccc2c(c1)CNC2)c1cc(Cl)cc2[nH]ncc12	1.16 µM

— ChEMBL document CHEMBL5604061, “ASAP - WNV NS2B-NS3 protease fluorescence dose response” (2024)
